For orientation: IC50 means the concentration needed to halve the response being measured.

One test concerns the target T1, Human immunodeficiency virus type 1 protease (Human immunodeficiency virus 1, UniProt Q72874). Nature of the test: Inhibitory concentration required to inhibit HIV-1 protease was determined.
Settings: not given; call rule not given here
In turn, `CC(C)(C)OC(=O)NCC(=O)N[C@@H](Cc1ccccc1)/C(O)=C(\C#N)c1ccc([N+](=O)[O-])cc1` returned an IC50 of 58 µM.

A further test has as its target T1, Human immunodeficiency virus type 1 protease. The test can be described thus: Apparent inhibitory constant against HIV-1 protease was determined. Particulars: read-out: Ki app.
Regarding `CC(C)(C)OC(=O)N[C@@H](C(=O)C(N)Cc1ccc2ccccc2c1)/C(O)=C(\C#N)c1ccc([N+](=O)[O-])cc1` (stereo partly drawn), the Ki was 38 µM.
In the case of `CC(C)(C)OC(=O)N[C@@H](C(=O)C(N)Cc1c[nH]c2ccccc12)/C(O)=C(\C#N)c1ccc([N+](=O)[O-])cc1` (stereo partly drawn), the Ki came to 18 µM.
The same measure, in the same setting: to `CC(C)(C)OC(=O)N[C@@H](C(=O)C(N)c1ccccc1)/C(O)=C(\C#N)c1ccc([N+](=O)[O-])cc1` (stereo partly drawn) belongs 30 µM; to `CC(C)(C)OC(=O)N[C@@H](C(=O)[C@@H](N)Cc1ccccc1)/C(O)=C(\C#N)c1ccc([N+](=O)[O-])cc1`, 54 µM; to `CC(C)(C)OC(=O)N[C@@H](C(=O)C(N)Cc1ccc(OCc2ccccc2)cc1)/C(O)=C(\C#N)c1ccc([N+](=O)[O-])cc1` (stereo partly drawn), 12 µM.
Turning to `CC(C)(C)OC(=O)N[C@@H](C(=O)C(N)CC1CCCCC1)/C(O)=C(\C#N)c1ccc([N+](=O)[O-])cc1` (stereo partly drawn), the Ki is 15 µM.
Still for that read-out and setting: as for `CC(C)(C)OC(=O)N[C@@H](Cc1ccccc1)/C(O)=C(\C#N)c1ccc([N+](=O)[O-])cc1`, the figure is 2.3 µM; as for `N#C/C(=C(/O)[C@H](Cc1ccccc1)NC(=O)OCC1c2ccccc2-c2ccccc21)c1ccc([N+](=O)[O-])cc1`, 78 µM; as for `CC(=O)NC(CC(C)C)C(=O)N[C@@H](Cc1ccccc1)/C(O)=C(\C#N)c1c(F)c(F)c(F)c(F)c1F` (stereo partly drawn), 7 µM.
As to `CC(C)(C)OC(=O)N[C@@H](Cc1ccccc1)/C(O)=C(\C#N)c1c(F)c(F)c(F)c(F)c1F`, the Ki was determined as 0.48 µM.
As to `CC(C)(C)OC(=O)N[C@H](C(=O)/C(C#N)=C(\O)c1ccccc1)C(=O)C(N)Cc1ccccc1` (stereo partly drawn), the Ki was 320 µM.
With `CC(C)(C)OC(=O)N[C@@H](C(=O)C1CCCN1)/C(O)=C(\C#N)c1ccc([N+](=O)[O-])cc1` (stereo partly drawn), the Ki was determined as 181 µM.
As for `N#C/C(=C(/O)[C@H](Cc1ccccc1)NC(=O)OCc1ccccc1)c1ccc([N+](=O)[O-])cc1`, the Ki turned out to be 30 µM.
Regarding `CC(=O)NC(CC(C)C)C(=O)N[C@@H](Cc1ccccc1)/C(O)=C(\C#N)c1ccc([N+](=O)[O-])cc1` (stereo partly drawn), the Ki was 9 µM.
Consider `CC(C)(C)OC(=O)N[C@@H](C(=O)C(N)Cc1ccc([N+](=O)[O-])cc1)/C(O)=C(\C#N)c1ccc([N+](=O)[O-])cc1` (stereo partly drawn), for which the Ki came out at 60 µM.
On the same count and under the same terms, as for `CC(C)(C)OC(=O)N[C@@H](C(=O)C(N)Cc1ccccc1)/C(O)=C/c1ccc([N+](=O)[O-])cc1` (stereo partly drawn), the figure is 689 µM.

The next test has the same target. Nature of the test: Inhibitory constant against HIV-1 protease at 400 uM; NI means no inhibition.
Settings: not given
For the molecule `CC(=O)NC(CC(C)C)C(=O)N[C@@H](Cc1ccccc1)C(O)=C(C#N)C#N` (stereo partly drawn), the Ki entry is given as “Not Active”.

The target is the same in another test. The test can be described thus: Inhibitory constant against HIV-1 protease was determined.
Settings: not given
Turning to `CC(=O)NC(CC(C)C)C(=O)N[C@@H](Cc1ccccc1)/C(O)=C(\C#N)c1ccncc1` (stereo partly drawn), the Ki amounted to 168 µM.
The molecule `CO/C(O)=C(/C#N)C(=O)[C@H](Cc1ccccc1)NC(=O)C(CC(C)C)NC(C)=O` (stereo partly drawn) gave a Ki of 209 µM.
For the molecule `CCOP(=O)(OCC)/C(C#N)=C(\O)[C@H](Cc1ccccc1)NC(=O)C(CC(C)C)NC(C)=O` (stereo partly drawn), the Ki was found to be 206 µM.
Consider `CC(=O)NC(CC(C)C)C(=O)N[C@@H](Cc1ccccc1)/C(O)=C(\C#N)c1ccc([N+](=O)[O-])cc1` (stereo partly drawn), for which the Ki came out at 9.5 µM.
In turn, `CC(=O)NC(CC(C)C)C(=O)N[C@@H](Cc1ccccc1)/C(O)=C(\C#N)S(=O)(=O)c1ccccc1` (stereo partly drawn) displayed a Ki of 152 µM.

Source of the values: ChEMBL document CHEMBL1151057, “Difunctional enols of N-protected amino acids as low molecular weight and novel inhibitors of HIV-1 protease” (Bioorg Med Chem Lett, 1993).
